# In article PMC7769561, “Antileishmanial activity of synthetic analogs of the naturally occurring quinolone alkaloid N-methyl-8-methoxyflindersin” (PLoS ONE, 2020):
# What was measured:
# [1] = system: hMDMs; assay: Cytotoxicity in hMDMs (resazurin, 72 h); settings: class by CC50
# Experimental: We isolated hMDMs from buffy coats donated by the Institute of Local Science (Biotechnology and Health Innovation, Bogotá, Colombia) and spun them in Lymphoprep density gradient medium (Stem-Cell, Vancouver, Canada).
# Next, we added 100 μL of this culture to each quinoline alkaloid–like compound at a concentration of 200, 20, 2, 0.2, and 0.02 μg/mL. […] Cells treated with amphotericin B (Sigma-Aldrich) were used as cell apoptosis (positive) controls. Results were expressed as the medial cytotoxic concentration (CC50) using Prism GraphPad software for nonlinear regression analysis (https://www.graphpad.com/scientific-software/prism/).
# All assays required at least three independently duplicated experiments. We determined cytotoxicity against hMDMs and effectivity in L. (V) panamensis promastigotes according to each treatment’s mortality (compound and concentration) using Eq 1, where the control mean fluorescence intensity (MFI) was 100% viability: Validityinhibition(%)=100−[MIFexposedcells/MIFunexposedcells×100] (1)
# We used GraphPad Prism nonlinear regression analysis to estimate the percentage mortality with regard to CC50 and EC50. […] The antileishmanial activity with regard to promastigotes was classified as active according to Eq 2: Active=EC50<[LC50/2], (2) where LC50 is the median lethal concentration. We also used GraphPad Prism nonlinear regression analysis to determine the intracellular antileishmanial activity (concentration vs. response), depending on the infection (number of infected cells) and parasite burden (number of parasites/cell) obtained in experimental conditions. Parasite inhibition was estimated using Eq 3, where the plate MFI is 100% parasites: Infectioninhibition(%)=100−[(MIFexposedparasites/MIFunexposedparasites×100)] (3)
# [2] = system: L. (V.) panamensis-infected hMDMs; assay: ROS generation in L. (V.) panamensis-infected hMDMs (H2DCFDA flow cytometry); format: cell-based, human
# Experimental: (§1) Next, we detached the cells with ethylenediaminetetraacetic acid (EDTA)/trypsin (Lonza, MD, USA) and 2',7'-dichlorodihydrofluorescein diacetate (H2DCFDA) tagged on a 5 μM fluorescent tube (Sigma-Aldrich) in order to identify intracellular ROS and/or 4-amino-5-methylamino-2′,7′-difluorofluorescein (DAF-FM; Sigma-Aldrich) for NO production in a 5% CO2 atmosphere for 45 min at 37°C. ROS and NO were quantified using flow cytometry (FACS Canto II) at a wavelength of 480 nm. Untreated cells were used as negative controls, while cells treated with 0.0001% H2O2 and 1 μM phorbol myristate acetate were used as ROS production (positive) controls. LPS (10 ng/mL) and phytohemagglutinin (PHA-M) (10 μL/mL) (Invitrogen) were used as positive controls for NO production.
# [3] = system: L. (V.) panamensis-infected hMDMs; assay: NO production in L. (V.) panamensis-infected hMDMs (DAF-FM flow cytometry); format: cell-based, human; settings: compound at EC50, 24, 48 and 72 h
# Experimental: as §1
# [4] = system: L. (V.) panamensis-infected hMDMs; assay: Transmission electron microscopy of L. (V.) panamensis-infected hMDMs; format: cell-based, human; settings: compound at EC50, 72 h, TEM; as to Cell membrane (ultrastructural modification grade): key: -: no alteration/absence; +: low alteration/low presence; ++: alteration/moderate presence; +++: serious disturbance/abundant presence; as to LB (lipid bodies, grade): key: -: no alteration/absence; +: low alteration/low presence; ++: alteration/moderate presence; +++: serious disturbance/abundant presence; as to Mitochondria (ultrastructural modification grade): key: -: no alteration/absence; +: low alteration/low presence; ++: alteration/moderate presence; +++: serious disturbance/abundant presence; as to Nucleus (ultrastructural modification grade): key: -: no alteration/absence; +: low alteration/low presence; ++: alteration/moderate presence; +++: serious disturbance/abundant presence
# Text: This procedure involved including fresh resin and 100–200-nm-wide ultrafine cuts observed by TEM (100X–10.000X) (HITACHI-HU-12; Hitachi, Tokyo, Japan).
substance,measurement,setting,value
"1,2,3,4-tetrahydro(benzo)-3-quinolin-ol [Compound 2]",Cytotoxicity class toward hMDMs,[1],high (high if CC50 < 100 μg/mL)
same,ROS generation,"[2]; compound at EC50, 48 h posttreatment",decrease in ROS generation
same,ROS generation,"[2]; compound at EC50, first 4 h",increase in ROS generation
same,NO production compared to untreated infected hMDMs,[3],do not modulate the induction of NO production
same,Cell membrane (ultrastructural modification grade),[4],-
same,"LB (lipid bodies, grade)",[4],+++
same,Mitochondria (ultrastructural modification grade),[4],+
same,Nucleus (ultrastructural modification grade),[4],-
same,PV (description),[4],Multiple parasites per vacuole
same,"PV (parasitophorous vacuoles, grade)",[4],+
same,Parasites (grade),[4],++
same,Vacuoles (ultrastructural modification grade),[4],-
